How the values were obtained:
[1] = Plasma pharmacokinetics of Carzelesin and metabolites by HPLC, first course; assay type: in vivo, human
Experimental: Carzelesin is a cyclopropylpyrroloindole analogue which acts as a DNA-sequence-specific alkylating agent. In this phase I study, Carzelesin was given as a 4-weekly 10 min IV infusion to 51 patients with advanced solid tumours. Patients received a median of two courses (range 1–5) at one of nine dose levels: 24, 48, 96, 130, 150, 170, 210, 250 and 300 μg m^−2. According to NCI-CTC criteria, non-haematological toxicities (grade 1/2) included fever, nausea and vomiting, mucositis and anorexia, none of which was clearly dose related. The dose-limiting toxicity was haematological and consisted mainly of neutropenia and to a lesser extent thrombocytopenia. From the dose level 150 μg m^−2, the haematological toxicity (particularly thrombocytopenia) was delayed in onset, prolonged and cumulative in some patients. In several courses, double WBC nadirs occurred. The maximum tolerated dose for a single course was 300 μg m^−2. From the dose level 170 μg m^−2, the intended dose intensity could not be delivered to most patients receiving > 2 courses owing to cumulative haematological toxicity. The dose level with the best dose intensity for multiple courses was 150 μg m^−2. The pharmacokinetics of Carzelesin and its metabolites (U-76,073; U-76,074) have been established in 31 patients during the first course of treatment using a HPLC method. […] The concentration of U-76,074 (active metabolite) extended above the lower limit of quantitation (1 ng ml^−1) for short periods of time and only at the higher dose levels. There was no relationship between neutropenia and the AUC of the prodrug Carzelesin, but the presence of detectable plasma levels of the active metabolite U-76,074 was usually associated with a substantial decrease in ANC values. © 1999 Cancer Research Campaign
Carzelesin (U-80,244, Figure 1A) is a cyclopropylpyrroloindole (CPI) prodrug analogue of CC-1065. […] CPI drugs are a class of compounds with unique DNA interactive properties. These agents fit into the minor groove region of DNA, and the CPI function in the molecule mediates a covalent binding to the N3 position of adenine in A-T rich regions, thus forming DNA adducts in a sequence selective fashion (Hurley et al, 1984; Reynolds et al, 1985). Three new CPIs have now been developed. […] Bizelesin differs from the classical CPI drugs in that it contains two chloromethyl functions, which are both converted (via intramolecular rearrangements) to the CPI alkyl- ating species that interact with DNA. Consequently, this agent is capable of forming DNA interstrand cross-links (Lee et al, 1991). […] Therefore, efforts were directed to modu- late the alkylation rate by the preparation of CPI prodrugs that would require chemical or enzymatic conversion. The activation of Carzelesin is a two-step reaction with hydrolysis of the phenyl- urethane substituent to form the intermediate compound U-76,073, followed by ring closure to form the active product U-76,074 (Figure 1B). […] This higher efficacy may be related to the pharmacologic features of the compound. […] Phase I study of Carzelesin (U-80,244) given (4-weekly) by intravenous bolus schedule A Awada1, CJA Punt2, MJ Piccart1, O Van Tellingen3, L Van Manen2, J Kerger1, Y Groot4, J Wanders4, J Verweij5 and DJTh Wagener2 1Institut Jules Bordet, Bd de Waterloo 125, 1000 Brussels, Belgium; 2University Hospital, Geert Grooteplein 8, Box 9101, 6500 HB Nijmegen, The Netherlands; 3The Netherlands Cancer Institute (Antoni van Leeuwenhoek Huis), Plesmanlaan 121, 1066 CX Amsterdam, The Netherlands; 4European Organization for Research and Treatment of Cancer - New Drug Development Office, PO Box 7057, Amsterdam, The Netherlands; 5Rotterdam Cancer Institute, Groene Hilledijk 301, 3075 EA Rotterdam, The Netherlands; on behalf of the EORTC Early Clinical Studies Group and EORTC NDDO Summary Carzelesin is a cyclopropylpyrroloindole analogue which acts as a DNA-sequence-specific alkylating agent. […]

[2] = tested on: murine and human tumour xenografts; settings: ref Li et al, 1992, cited from earlier work

CCN(CC)c1ccc2cc(C(=O)Nc3ccc4[nH]c(C(=O)N5C[C@@H](CCl)c6c5cc(OC(=O)Nc5ccccc5)c5[nH]cc(C)c65)cc4c3)oc2c1 [Carzelesin]
time after drug administration until plasma level dropped below 1 ng ml-1 ([1]; dose level 24): ≤ 1 h
peak plasma concentration ([1]; dose level 24, also reported in Van Tellingen et al, 1998): about 10 ng ml-1
mean peak plasma level ([1]; highest dose level 300): 63 ng/mL
pharmacokinetic behaviour (dose vs plasma AUC) ([1]; in vivo): linear pharmacokinetics
efficacy in a broad panel of murine and human tumour xenografts ([2]; compared with adozelesin): more efficacious
efficacy against Lewis lung carcinoma, B16 melanoma, colon 38 carcinoma, colon CX1 adenocarcinoma, lung LX-1 tumour, ovarian 2780 and prostatic DU-145 carcinoma ([2]; Houghton et al, 1995): highly effective
